Experimental data: patent publication US7786165B2, “Aminophenylpropanoic acid derivative” (Takeda Pharmaceutical Company Limited, priority 2004, dated 2010)
Counter-ions that a name gives are not always drawn.

target: T1, human GPR40 (Homo sapiens, UniProt O14842); test: Determination of EC50 for human GPR40: intracellular calcium change by FLIPR in CHO cells stably expressing human GPR40; assay type: cell-based; conditions: CHO cell line stably expressing human GPR40, changes in intracellular calcium concentration, Fluo3-AM, read-out: EC50 (Receptor Function Modulating Action On GPR40)
T1 construct: expressed in transfected cells; host or cells: CHO cell line stably expressing human GPR40
T1 sequence (O14842 whole entry): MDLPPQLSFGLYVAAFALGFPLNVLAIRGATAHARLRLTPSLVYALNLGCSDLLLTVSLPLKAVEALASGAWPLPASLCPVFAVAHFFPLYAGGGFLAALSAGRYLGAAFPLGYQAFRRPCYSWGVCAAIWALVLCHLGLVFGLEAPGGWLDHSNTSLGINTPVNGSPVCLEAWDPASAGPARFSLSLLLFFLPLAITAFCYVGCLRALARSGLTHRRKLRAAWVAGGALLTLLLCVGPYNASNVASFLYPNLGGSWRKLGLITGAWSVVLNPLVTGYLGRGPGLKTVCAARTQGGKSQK
Description: Determination of EC50 of the Compound of the Present Invention for Human GPR40
For determination of EC50, CHO cell line that stably expressed human GPR40 was used. Unless otherwise indicated, the CHO cell line was cultured using α-MEM medium (Invitrogen) containing 10% fetal calf serum (Invitrogen).
The cells cultured to nearly confluent were rinsed with PBS (Invitrogen) on the previous day of the assay, peeled off with 0.05% Trypsin-EDTA solution (Invitrogen) and recovered by centrifugation. The number of the obtained cells was counted, and the cells were diluted such that 3×10^5 cells were contained per 1 mL of the medium, dispensed to a black welled 96-well plate (coster) by 100 μL per well and cultured overnight in a CO2 incubator. Various test compounds were added to the CHO cells thus prepared, and the changes in the intracellular calcium concentration were measured using FLIPR (Molecular Device). The below-mentioned pre-treatment was applied to measure changes in the intracellular calcium concentration by FLIPR.
First, an assay buffer for adding a fluorescence dye Fluo3-AM (DOJIN) to the cells, or for washing the cells immediately before FLIPR assay was prepared. To a solution of HBSS (Invitrogen, 1000 mL) to which 1M HEPES (pH 7.4, DOJIN, 20 mL) added (hereinafter HBSS/HEPES solution) was added a solution (10 mL) obtained by dissolving probenecid (Sigma, 710 mg) in 1N NaOH (5 mL), and adding and mixing an HBSS/HEPES solution (5 mL), and the resulting solution was used as an assay buffer. Next, Fluo3-AM (50 μg) was dissolved in dimethylsulfoxide (Wako, 21 μL), and an equivalent amount of 20% pluronic acid (Molecular Probes) was added and mixed. The solution was added to the assay buffer (10.6 mL) supplemented with fetal vovine serum (105 μL) to give a fluorescence dye solution. The medium of the CHO cells inoculated to the black welled 96-well plate on the previous day of assay was removed, the fluorescence dye solution was immediately dispensed by 100 μL per well and the cells were cultured in a CO2 incubator for 1 hr to allow intake of the fluorescence dye by the cells. The cells after the culture were washed with the above-mentioned assay buffer and set on FLIPR. The test compound was diluted with dimethylsulfoxide in advance, dispensed to polypropylene 96-well plate (sample plate) by […], and cryopreserved at −20° C. To the thawed sample plate was added an assay buffer containing 0.015% CHAPS (DOJIN) by 198 μL, and simultaneously set on FLIPR together with the cell plate. After the aforementioned pre-treatment, changes in the intracellular calcium concentration upon addition of various test compounds as measured by FLIPR. Based on the results, a dose-response curve of each test compound was formed and EC50 was calculated.

SMILES	EC50 [µM]
Cc1cc(OCC2CC2)cc(C)c1-c1cccc(CNc2ccc(CCC(=O)O)cc2)c1 [Example 33, 3-[4-({[4′-(cyclopropylmethoxy)-2′,6′-dimethylbiphenyl-3-yl]methyl}amino)phenyl]propanoic acid hydrochloride]	< 0.1
Cn1ncc(COc2ccc(CNc3ccc(CCC(=O)O)cc3)cc2)c1-c1ccc(F)cc1 [Example 47, 3-{4-[(4-{[5-(4-fluorophenyl)-1-methyl-1H-pyrazol-4-yl]methoxy}benzyl)amino]phenyl}propanoic acid]	< 1
Cc1cccc(C)c1-c1cccc(CNc2ccc(CCC(=O)O)cc2)c1 [Example 2, 3-(4-{[(2′,6′-dimethylbiphenyl-3-yl)methyl]amino}phenyl)propanoic acid]	< 0.01
CCOCCOc1ccc(-c2cc(CNc3ccc(CCC(=O)O)cc3)ccc2OCc2ccccc2)cc1 [Example 70, 3-[4-({[6-(benzyloxy)-4′-(2-ethoxyethoxy)biphenyl-3-yl]methyl}amino)phenyl]propanoic acid]	< 0.1
Cc1cccc(C)c1-c1cc(CNc2ccc(CCC(=O)O)c(F)c2)cc(OCc2ccccc2)c1 [Example 105, 3-[4-({[5-(benzyloxy)-2′,6′-dimethylbiphenyl-3-yl]methyl}amino)-2-fluorophenyl]propanoic acid methanesulfonate]	< 0.1
CCOCCOc1cc(C)c(-c2cccc(CNc3ccc(OCC(=O)O)cc3)c2)c(C)c1 [Example 67, [4-({[4′-(2-ethoxyethoxy)-2′,6′-dimethylbiphenyl-3-yl]methyl}amino)phenoxy]acetic acid]	< 0.1
CCOCCOc1cc(C)c(-c2cccc(CNc3ccc(CC(F)(F)C(=O)O)cc3)c2)c(C)c1 [Example 117, 3-[4-({[4′-(2-ethoxyethoxy)-2′,6′-dimethylbiphenyl-3-yl]methyl}amino)phenyl]-2,2-difluoropropanoic acid]	< 0.1

Next, values leading:

EC50 [µM]	SMILES
< 0.1	CCOCCOc1cc(C)c(-c2cccc(CNc3ccc(CCC(=O)O)cn3)c2)c(C)c1 [Example 120, 3-[6-({[4′-(2-ethoxyethoxy)-2′,6′-dimethylbiphenyl-3-yl]methyl}amino)pyridin-3-yl]propanoic acid methanesulfonate]
< 0.1	CC(C)(C)c1cc(COc2ccccc2)n(Cc2ccc(CNc3ccc(CCC(=O)O)c(F)c3)cc2)n1 [Example 169, 3-{4-[(4-{[3-tert-butyl-5-(phenoxymethyl)-1H-pyrazol-1-yl]methyl}benzyl)amino]-2-fluorophenyl}propanoic acid dimethanesulfonate]
< 0.1	CCOCCOc1ccc(-c2cc(CNc3ccc(CCC(=O)O)cc3)ccc2OC(C)C)cc1 [Example 127, 3-[4-({[4′-(2-ethoxyethoxy)-6-isopropoxybiphenyl-3-yl]methyl}amino)phenyl]propanoic acid]
< 0.1	Cc1cc(OC2CCS(=O)(=O)CC2)cc(C)c1-c1cccc(CNc2ccc(CCC(=O)O)c(F)c2)c1 [Example 204, 3-{4-[({4′-[(1,1-dioxidotetrahydro-2H-thiopyran-4-yl)oxy]-2′,6′-dimethylbiphenyl-3-yl}methyl)amino]-2-fluorophenyl}propanoic acid methanesulfonate]
